Experimental data as given in ChEMBL document CHEMBL3507680, “University of Dundee, Gates Library screen for HepG2 cell viability”.

assay: Human HepG2 cell viability assay in 384 well format; format: toxicity, cell-based; set-up: dose 125 nL, time 70.5 hour; cytotoxicity at 70.5 h: concentration not given beside the values; settings: HepG2 cells, read-out: Inhibition

SMILES | cytotoxicity at 70.5 h
Cc1ccc(CN2CCc3ncc(CNS(C)(=O)=O)n3CC2)o1 | -12.4%
O=C(c1ccc(-c2cccs2)cc1F)N1CCN(CCO)CC1 | -2.06%
Cn1c(C(=O)N2CCC(C(=O)N3CCCC3)CC2)c(Cl)c2ccccc21 | -9.31%
O=C(NCCCC(=O)N1Cc2ccccc2C1)NCc1nccs1 | -5.34%
CN(C)C(=O)C1CN(Cc2ccccc2)CCN(S(C)(=O)=O)C1 (configuration not stated) | -6.37%
Cc1ccc2c(n1)N(Cc1cccnc1)CCN(C1CCOCC1)C2 | 2.27%
CC(=O)NC[C@H]1OC[C@@H](NC2CCC(F)(F)CC2)[C@@H]1O | -4.95%
CC1(C)O[C@@](C)([C@H]2CC3(CCN(c4ncccn4)CC3)CO2)CC[C@@H]1O | -4.22%
CS(=O)(=O)NCCCNC(=O)c1cccnc1O | -4.43%
CC(Sc1nncn1C)C(=O)NCCCOc1ccc(F)cc1 (configuration not stated) | -22.5%
CCN(CC)C(=O)[C@@H]1C[C@@H](NC(=O)c2ccoc2)CN1C | 25.9%
CN1CCC(NCC2(O)CCCN(Cc3ccccc3F)C2=O)CC1 (configuration not stated) | -4.92%
COCCc1noc(CN2CCCC2Cn2nc(C)nc2C)n1 (configuration not stated) | 44.8%
CCN1CC2(CC1=O)CN(C(=O)c1cccs1)CCN(C(=O)N(C)C)C2 (configuration not stated) | -1.77%
CC(C)=CCN1C[C@H]2CC[C@@H]1CN(S(=O)(=O)c1cccnc1)C2 | 6.15%
Cc1ccc(-c2nc(CN3CCOC(CN(C)C)C3)co2)cc1 (configuration not stated) | -5.51%
COCCCC1CCCN(Cc2c(C)ccc3ncccc23)C1 (configuration not stated) | 6.57%
Cc1nn(C)c2sc(C(=O)N3CCCC(n4ccnc4C)C3)cc12 (configuration not stated) | -7.74%
CC(C)c1nnc2n1CCN(Cc1ccc3c(c1)OCO3)CC2 | -11.5%
Cc1nc(NC2CCS(=O)(=O)CC2)cc(C2CCCNC2)n1 (configuration not stated) | -7.39%
COc1ccc(Nc2nc3c(C)nn(C)c3c(=O)n2C)c(C)c1 | 0.529%
O=C(c1cccc(F)c1)N1CC[C@@H]2CN(c3ncccn3)CCO[C@@H]2C1 | -15.1%
CN1CCN(c2ncc3c(=O)n(Cc4ccco4)ccc3n2)CC1 | -9.22%

SMILES | cytotoxicity at 70.5 h
CCN(Cc1ccoc1)C(=O)Nc1ccccc1CN(C)C(C)=O | 22%
Cc1ccc2c(c1)C(=O)NCC1(CCN(Cc3ccccc3)CC1)O2 | -6.17%
CC(=O)Nc1nc(CN(C)CC2CCCN2c2cccnn2)cs1 (configuration not stated) | -12.7%
Cc1cnn(CC2CN(c3nc4ccccc4o3)CCO2)c1 (configuration not stated) | 16.4%
CC(C)N(C)C(=O)C1=NOC2(CCN(C(=O)c3ccc(Cl)cc3)C2)C1 (configuration not stated) | -0.00349%
CC(=O)c1ccc(-n2c(C)cn(CCC(=O)NC(N)=O)c2=O)cc1 | -14.8%
Cc1nnc(-c2ccc(C(=O)Nc3ccnc(N(C)C)n3)cc2)o1 | 4.63%
C[C@@H]1CN(Cc2ccccc2)CCN1C(=O)NCc1nccs1 | 0.13%
CC(Cc1cnccn1)NC(=O)c1cccc(CC2CCNCC2)c1 (configuration not stated) | 14%
O=C(c1cc[nH]n1)N1CCC(F)(F)C2(CCN(c3ccccn3)C2)C1 (configuration not stated) | 11%
Cn1cnc2c1C(COCc1ccccc1)N(Cc1ccccn1)CC2 (configuration not stated) | -0.00457%
Cc1cc(C)n(CC2CCCCN2C(=O)c2sccc2C#N)n1 (configuration not stated) | 1.28%
Cc1ccc(F)c2c1N(C(=O)c1cn(CC(=O)N(C)C)nn1)CCC2 | -10.6%
O=C1CO[C@@H]2CN(S(=O)(=O)c3ccccc3)C[C@H]2N1CC1CC1 | -13.1%
COc1ccc(C(=O)N2CCC(C3CCN(c4ncccn4)CC3)C2)o1 (configuration not stated) | 2.75%
CS(=O)(=O)N1CCc2[nH]cnc2C12CCN(C(=O)c1ccc[nH]1)CC2 | -3.3%
O=C(CC1CC1)N1CCC2(CC1)CN(c1cccnc1)C(=O)CO2 | -4.69%
O=C(O)c1c[nH]c2cc(NS(=O)(=O)c3cccc(F)c3F)ccc12 | -9.73%
O=C(c1ccc(F)cc1)N1CCC2(CCN(Cc3ccccn3)C2=O)C1 (configuration not stated) | -5.2%
CC(=O)N1CCCC(C(=O)Nc2ccccc2Cc2ccccc2)C1 (configuration not stated) | 3.24%
CC(NC(=O)c1cccnc1N(C)C)c1ccccc1Br (configuration not stated) | 20.1%
CCc1nc(CC(=O)NC(C#N)CC(C)C)cs1 (configuration not stated) | -0.177%
Cc1nc(C(Cc2ccsc2)NC(=O)CCN2CCOCC2)sc1C (configuration not stated) | -7.23%

SMILES | cytotoxicity at 70.5 h
CC(C)(C)C(Cn1cccn1)NC(=O)c1ccco1 (configuration not stated) | -2.47%
O=C(O)CCn1ccc(=O)c2ccccc21 | -3.76%
Cc1nn(C)c(N(C)C)c1CNC1CCOc2c(Cl)cccc21 (configuration not stated) | 23.4%
Cc1cccc(COC[C@]23COC[C@H]2CN(c2ncccn2)C3)n1 | -10.2%
CC1CN(Cc2nc(Cc3ccccc3F)no2)CCN1C (configuration not stated) | -2.74%
Cn1ncc2c(NCCOc3ccc(F)cc3)nc(C3CCCC3)nc21 | 0.952%
Cc1nn(C)c(Oc2cccnc2)c1NC(=O)C1CCCO1 (configuration not stated) | -3.71%
COCC(=O)N1CCc2[nH]c(=O)ccc2C1 | -8.99%
CCc1nc2n(n1)CCCC2Nc1nc(C2CC2)ns1 (configuration not stated) | -8.97%
COc1ncnc(N)c1CNCCOc1ccccc1Cl | -5.86%
Cc1ncsc1CCN(C)C(=O)CN1C(=O)OC[C@@H]1c1ccccc1 | 4.46%
COCCNC(=O)NCCc1ccn(-c2ccccc2)n1 | -10.9%
O=C(O)CCC(=O)Nc1nn(Cc2ccccc2Cl)cc1Cl | -5.22%
c1cnc(NC[C@@H]2CCC[C@@H]3CN(Cc4cc[nH]n4)C[C@@H]32)nc1 | -5.11%
CCNC(=O)CNS(=O)(=O)Cc1cc(-c2ccccc2)no1 | 2.55%
CCC(CC)(CNC(=O)c1cccn1Cc1cccnc1)N(C)C | -3.43%
CCn1nc(C)c2c1cnn2CC(=O)NC(C)c1cccc(OC)c1 (configuration not stated) | -15.4%
Cc1ccc2c(c1)C(=O)CC1(CCN(Cc3ccccc3)CC1)O2 | -2.96%
CN(C)C(=O)c1cc2ncc(C(=O)NC3CC3)cc2n1C | -1.06%
CC(c1ccccc1)N(C)C(=O)CN1CCCc2cccc(F)c21 (configuration not stated) | 0.621%
Cc1cnn(CC2CCCCN2C(=O)Cc2cccc(F)c2)c1 (configuration not stated) | -10.9%
Cc1cccc(CN2C[C@@H](CN3CCCN(C)CC3)C[C@H](CO)C2)n1 | -5.2%
Cc1nc(CN2CCCC(N(C)CCCc3ccccc3)C2)no1 (configuration not stated) | -5.01%

SMILES | cytotoxicity at 70.5 h
CC(C)(C)CCCC(=O)Nc1ccnn1C1CCS(=O)(=O)C1 (configuration not stated) | -6.88%
COc1ccc(-c2ccnc(C3CCNCC3)c2)cc1 | -5.12%
Cc1ccc(CN2CCc3c(CN(C)C)n[nH]c3C2)s1 | -0.649%
CC(C)S(=O)(=O)C(C)C(=O)NCc1ccccc1OCc1ccccc1 (configuration not stated) | -1.68%
CC1(c2[nH]ncc2C(N)=O)CCN(S(=O)(=O)c2ccccc2)CC1 | -2.57%
Cc1noc(C)c1C(=O)NCc1ccc(N2CCOCC2)nc1 | -8.43%
CNc1cc(C)nc(C2CN(Cc3cncs3)CCO2)c1 (configuration not stated) | -11.5%
CC(C)(C)CC(=O)NCCCn1cncn1 | -6.64%
Cc1ccc(NC(=O)c2coc(C)n2)c(C)c1 | -6.55%
Cc1ccc(N2CCCC(N3CCN(CC(F)F)CC3)C2=O)cc1 (configuration not stated) | -6.94%
CCc1cnc(CN2CCOC(c3nc(C)n[nH]3)C2)o1 (configuration not stated) | -7.69%
CNc1cnc(CC2COCCN(Cc3ccccc3)C2)cn1 (configuration not stated) | -2.53%
CN1Cc2c(C(=O)N3CCOCC3)ncn2-c2ccccc2S1(=O)=O | -1.47%
c1ccc(-c2nc(CN3CCOC(Cn4cccn4)C3)no2)cc1 (configuration not stated) | 2.47%
CC(=O)N1[C@H](CN(C)C)C[C@@H]2CN(C(=O)c3cccc(F)c3)CC[C@@H]21 | -14.7%
CN(CC(=O)NCC(F)(F)F)C(=O)c1ccc(=O)[nH]c1 | -8.21%
CN1CCCC2(C1)CN(C(=O)C1CCCCC1)CCO2 (configuration not stated) | -4.05%
COc1ccc(CSc2nnc(N)n2C2CC2)cc1Cl | -8.32%
CN(Cc1ncc(-c2ccccc2)o1)C1CCCN(c2cccnn2)C1 (configuration not stated) | 2.02%
CC(=O)N1CCC(NC(=O)CN2CCCc3c(F)ccc(C)c32)CC1 | -4.42%
Cc1cccnc1CSCCCNS(C)(=O)=O | -5.33%
Cc1ccnc(C2CCCN2C(=O)c2cnccn2)n1 (configuration not stated) | -9.28%
O=C(c1ccncc1F)N1Cc2nc(CN3CCCCC3)oc2C1 | -8.64%

SMILES | cytotoxicity at 70.5 h
Cc1occc1C(=O)N1CCO[C@H]2[C@H](OCc3ccccn3)CC[C@@H]21 | -7.78%
COCCCS(=O)(=O)N1CCN(c2cccc(O)c2)CC1 | -6.99%
c1ccc(CN2CCN(C3CCOC4(CCOCC4)C3)CC2)nc1 (configuration not stated) | -16.9%
O=C(C1CCOCC1)N1CCO[C@@H]2[C@@H](OCc3ccncc3)CC[C@@H]21 | -22.7%
O=C(c1cncnc1)N1Cc2ccccc2OC2(CCOCC2)C1 | 2.98%
CCC(=O)N1CCN(c2cc(-n3cnc(C)c3C)nc(C)n2)CC1 | 20.4%
O=C(O)c1cc(S(=O)(=O)Nc2cccc3c2OCCO3)ccc1F | -18.2%
Cc1ccc(C2COCCN2C(=O)c2ccc(C#N)cc2)o1 (configuration not stated) | -7.82%
CNC(=O)CCc1cc(C)nc(C2CCN(C3CCCCC3)CC2)c1 | -0.853%
Cc1nccc(N2C[C@H](NC(=O)CNS(C)(=O)=O)[C@@H](C3CC3)C2)n1 | -5%
O=C(Cc1ccon1)NC1CCCN(c2ccccc2F)C1=O (configuration not stated) | 3.76%
O=C1N(Cc2cccc(Cl)c2)CCC12CCCNC2 (configuration not stated) | -12.1%
C[C@@H]1CN(CCC(=O)N(C)Cc2ccccc2)CC[C@@]1(O)C1CCC1 | 21.4%
CC(C)n1cc(N2CC(C(=O)N3CCC(C(N)=O)CC3)CC2=O)cn1 (configuration not stated) | -11.7%
Cc1cc(C2CCCN2Cc2nc3ccccc3o2)on1 (configuration not stated) | 1.19%
CC(C(=O)NCc1ccc(N2CCN(C)CC2)nc1)n1cccn1 (configuration not stated) | -6.16%
CCc1nnc2n1CCN(C(=O)CCOc1ccc(C)cc1C)C2 | -4.53%
Cc1cccc(C(=O)N2CC[C@@H]3[C@H]2CCC(=O)N3c2ccccc2)n1 | 17.8%
CCC(CC)C(=O)NC1CCCc2nc(N3CCOCC3)ncc21 (configuration not stated) | -4.12%
COCCC1CCCCN1Cc1nc(C2CC2)no1 (configuration not stated) | -9.77%
